Series [1] relates to U2OS cells. In words: Homologous recombination assay with DR-GFP reporter. As to conditions: 10 μM B02, FIG. 8D. The class given is cell-based. As to the method:
(§1) (A) Experimental scheme for inhibition of TGF-β Pathway in mice. WT or Fancd2−/− mice were treated with isotype or 1D11 antibody (10 mg/kg) for 48h, and bone marrow HSCs were sorted for gene expression profile and cell cycle analysis. […] Cell cycle analysis of HSCs from WT or Fancd2−/− mice treated with isotype or 1D11 antibody for 48h is shown. Error bars represent mean±s.e.m. (n=4 mice per group). […] Homologous recombination assay was measured in U2OS cells with DR-GFP reporter after treatment with […] RI-1 and 10 μM B02. The representative of two independent experiments is presented; error bars represent mean±s.e.m. […] GM6914 (FA-A) cells or corrected GM6914+FANCA cells were treated with 1 μM MMC and 10 μM inhibitors for 6h before immunofluorescence analysis. Representative images (E) and quantification (F) of RAD51 foci are shown. […] HSPCs from WT or Fancd2−/− mice were treated with B02 (10 μM) or RI-1 ([…]) in vitro for five days and survival was determined. […] HSPCs from WT or Fancd2−/− mice were exposed to 1D11 (10 μg/mL) and RAD51 inhibitors (10 μM) for 30 min followed by exposure to acetaldehyde for 4 hrs. The cells were then washed and cultured in presence of 1D11 and RAD51 inhibitors for 7-9 days, and hematopoietic colonies were counted.

For series [2], the system named is HSPCs from WT or Fancd2−/− mice. In words: Cytotoxicity of RAD51 inhibitors in HSPCs. The class given is cell-based, mouse. The conditions noted are these: B02 (10 μM) or RI-1 (1004) in vitro for five days; FIG. 8G. As to the method:
as §1

The test system of series [3] is GM6914 (FA-A) cells. The experiment in a line: RAD51 foci formation by immunofluorescence. The class given is cell-based. As to conditions: 1 μM MMC and 10 μM inhibitors for 6h; FIG. 8E, F. The protocol:
as §1
Cells were grown on coverslip for 24 hours before treated with MMC. […]

Series [4] has as its system Fancd2−/− stromal cells. The experiment in a line: Survival of stromal cells in the presence of MMC. The class given is cell-based, mouse. As to conditions: FIG. 1A. As to the method:
For survival assays, cells were seeded at a density of 1×10^3 cells per well in 96-well plates. After 72 hours of culture in indicated concentrations of MMC or post exposure of acetaldehyde, viability was assessed using CellTiterGlo reagent (Promega). In order to assess clonogenicity, cells were seeded at a low density (500-1000 cells per well) in 6-well plates and allowed to form colonies. The cells were then fixed in methanol/20% acetic acid and stained with 1% crystal violet. Colony formation was assessed by solubilizing crystal violet stain with methanol and quantifying UV absorbance for each condition.
For survival assays, cells were seeded at a density of 1×10^3 cells per well in 96-well plates. After 3-6 days of culture in indicated concentrations of MMC or post exposure of acetaldehyde, viability was assessed using CellTiterGlo reagent (Promega). In order to assess clonogenicity, cells were seeded at a low density (500-1000 cells per well) in 6-well plates and allowed to form colonies. The cells were then fixed in methanol/20% acetic acid and stained with 1% crystal violet. Colonies were counted after crystal violet staining.

For series [5], the system named is Lin− cells from WT and Fancd2−/− mice. The experiment in a line: Lin− cell growth under mTGFβ. The class given is cell-based, mouse. As to conditions: mTGFβ 1 ng/mL; FIG. 2B. As to the method: For mouse hematopoietic stem/progenitor cell culture, Lin^− cells were cultured in vitro in StemSpan SFEM media with 10 ng/mL SCF, 20 ng/mL IGF-2, 20 ng/mL TPO, 10 ng/mL heparin, and 10 ng/mL a-FGF. Half media was changed every three days. For human cord blood cells, CD34+ cells were isolated using CD34 microbead kit (Miltenyi Biotec). Cells were cultured in StemSpan SFEM media with 100 ng/mL hSCF, 100 ng/mL FLT3 ligand, 10 ng/mL TPO, 10 ng/mL IL-6. Cells were treated with 10 ug/mL 1D11 or 10 μM SD208.
To perform flow cytometry analysis, Lin^− cells were collected at day 2 and 5 post transduction and suspended in staining medium (PBS with 2% heat-inactivated calf serum), and incubated with PE-conjugated c-Kit and APC-conjugated Sca-1 antibodies were added to the cells for 30 min at 4° C. in the dark. Stem cell population (GFP^+Lin^−c-Kit^+Sca-1^+) was analyzed by FACS. All these antibodies were purchased from eBioscience.

For series [6], the system named is TGFβ pathway. The experiment in a line: Immunoblot of p-Smad2 in stromal cells. The class given is cell-based, mouse. As to conditions: FIG. 1A bottom panel. In general terms: A western blot detects proteins with antibodies after separation by electrophoresis.

Experimental findings from patent US10526402B2, “Anti-TGF-beta antibody for the treatment of fanconi anemia” (Dana-Farber Cancer Institute, Inc., priority 2015, dated 2020) are described below.

For `O=c1c2ccccc2nc(/C=C/c2cccnc2)n1Cc1ccccc1` [B02], the “HR efficiency (DR-GFP recombination)” value in series [1] is given as “significantly decrease HR efficiency”. Moreover, in series [2], the “cytotoxicity in HSPCs (survival)” value is recorded as “do not show cytotoxicity”. In addition, the RAD51 foci formation result in series [3] is on record as “efficiently block RAD51 foci formation”.

Turning to `O=C1C(Cl)=C(N2CCOCC2)C(=O)N1c1ccc(Cl)c(Cl)c1` [RI-1], the “HR efficiency (DR-GFP recombination)” value in series [1] is listed as “significantly decrease HR efficiency”. Also, the “cytotoxicity in HSPCs (survival)” value in series [2] is recorded as “do not show cytotoxicity”. Also, in series [3], the RAD51 foci formation result is on record as “efficiently block RAD51 foci formation”.

For `Fc1ccc(Cl)cc1-c1nc(Nc2ccncc2)c2nccnc2n1` [SD208], the “MMC sensitivity / resistance (survival) of Fancd2−/− stromal cells” value in series [4] is reported as “restores MMC resistance”. Also, the “suppressive effect of exogenous mTGFβ on Lin− cell growth” value in series [5] is reported as “rescued the inhibitory effect”. In addition, in series [6], the “activation of the TGFβ pathway (p-Smad2) in murine stromal cells” value is “inhibition of TGFβ signaling”.
